Measured values published in the NIST ThermoML archive (doi:10.1021/je060189f).
± gives the expanded uncertainty stated by the source.

Experiment: mn = molality of the nth substance listed, in mol/kg
Conditions: 101 kPa, Liquid

O=C(O)CCCCC(=O)O [1,6-hexanedioic acid] + O
Conditions | mass density [kg/m3] | viscosity [mPa·s]
293.15 K, m1 = 0.00708 | 998.48 ± 0.3 | 1.006 ± 0.013
293.15 K, m1 = 0.01399 | 998.72 ± 0.3 | 1.008 ± 0.013
293.15 K, m1 = 0.02122 | 999.01 ± 0.3 | 1.01 ± 0.013
293.15 K, m1 = 0.02857 | 999.2 ± 0.3 | 1.014 ± 0.013
293.15 K, m1 = 0.05669 | 1000.16 ± 0.3 | 1.023 ± 0.013
293.15 K, m1 = 0.08401 | 1000.95 ± 0.3 | 1.035 ± 0.013
293.15 K, m1 = 0.1125 | 1001.81 ± 0.31 | 1.047 ± 0.013
293.15 K, m1 = 0.143 | 1002.78 ± 0.31 | 1.06 ± 0.013
298.15 K, m1 = 0.01287 | 997.49 ± 0.31 | –
298.15 K, m1 = 0.0154 | 997.52 ± 0.3 | 0.8959 ± 0.011
298.15 K, m1 = 0.0257 | 997.83 ± 0.31 | 0.8985 ± 0.011
298.15 K, m1 = 0.02702 | 997.91 ± 0.31 | –
298.15 K, m1 = 0.03133 | 998.11 ± 0.31 | 0.9017 ± 0.011
298.15 K, m1 = 0.03789 | 998.27 ± 0.3 | 0.9028 ± 0.011
298.15 K, m1 = 0.04282 | 998.42 ± 0.3 | –
298.15 K, m1 = 0.0455 | – | 0.905 ± 0.011
298.15 K, m1 = 0.05256 | – | 0.9074 ± 0.012
298.15 K, m1 = 0.05544 | 998.81 ± 0.3 | –
298.15 K, m1 = 0.05776 | – | 0.9102 ± 0.012
298.15 K, m1 = 0.06453 | – | 0.9122 ± 0.012
298.15 K, m1 = 0.06825 | 999.2 ± 0.3 | –
298.15 K, m1 = 0.06989 | 999.21 ± 0.3 | 0.9136 ± 0.012
298.15 K, m1 = 0.08417 | 999.71 ± 0.3 | –
298.15 K, m1 = 0.08956 | – | 0.9197 ± 0.012
298.15 K, m1 = 0.09767 | 1000.15 ± 0.3 | –
298.15 K, m1 = 0.1088 | 1000.49 ± 0.3 | –
298.15 K, m1 = 0.1136 | 1000.66 ± 0.3 | 0.9285 ± 0.012
298.15 K, m1 = 0.1266 | 1001.01 ± 0.3 | –
298.15 K, m1 = 0.1377 | 1001.33 ± 0.3 | –
303.15 K, m1 = 0.01287 | 996.07 ± 0.31 | –
303.15 K, m1 = 0.0154 | 996.08 ± 0.31 | 0.8022 ± 0.01
303.15 K, m1 = 0.0257 | 996.56 ± 0.32 | 0.806 ± 0.01
303.15 K, m1 = 0.02702 | 996.51 ± 0.31 | –
303.15 K, m1 = 0.03133 | 996.64 ± 0.31 | 0.8073 ± 0.01
303.15 K, m1 = 0.03789 | 996.83 ± 0.31 | 0.8085 ± 0.01
303.15 K, m1 = 0.04282 | 996.99 ± 0.31 | –
303.15 K, m1 = 0.0455 | – | 0.8116 ± 0.01
303.15 K, m1 = 0.05256 | – | 0.8134 ± 0.01
303.15 K, m1 = 0.05544 | 997.38 ± 0.31 | –
303.15 K, m1 = 0.05776 | – | 0.8148 ± 0.011
303.15 K, m1 = 0.06453 | – | 0.8157 ± 0.011
303.15 K, m1 = 0.06825 | 997.72 ± 0.31 | –
303.15 K, m1 = 0.06989 | 997.73 ± 0.31 | 0.8172 ± 0.011
303.15 K, m1 = 0.08417 | 998.28 ± 0.31 | –
303.15 K, m1 = 0.08956 | – | 0.8233 ± 0.011
303.15 K, m1 = 0.09767 | 998.74 ± 0.3 | –
303.15 K, m1 = 0.1088 | 999.01 ± 0.3 | –
303.15 K, m1 = 0.1136 | 999.1 ± 0.3 | 0.8297 ± 0.011
303.15 K, m1 = 0.1266 | 999.56 ± 0.3 | –
303.15 K, m1 = 0.1377 | 999.93 ± 0.3 | –
308.15 K, m1 = 0.01287 | 994.41 ± 0.32 | –
308.15 K, m1 = 0.0154 | 994.45 ± 0.31 | 0.7229 ± 0.0095
308.15 K, m1 = 0.0257 | 994.79 ± 0.33 | 0.7255 ± 0.0096
308.15 K, m1 = 0.02702 | 994.89 ± 0.31 | –
308.15 K, m1 = 0.03133 | 994.96 ± 0.31 | 0.7275 ± 0.0096
308.15 K, m1 = 0.03789 | 995.17 ± 0.31 | 0.7285 ± 0.0096
308.15 K, m1 = 0.04282 | 995.34 ± 0.31 | –
308.15 K, m1 = 0.0455 | – | 0.7309 ± 0.0096
308.15 K, m1 = 0.05256 | – | 0.7323 ± 0.0096
308.15 K, m1 = 0.05544 | 995.71 ± 0.31 | –
308.15 K, m1 = 0.05776 | – | 0.7334 ± 0.0097
308.15 K, m1 = 0.06453 | – | 0.7353 ± 0.0097
308.15 K, m1 = 0.06825 | 996.07 ± 0.31 | –
308.15 K, m1 = 0.06989 | 996.09 ± 0.31 | 0.7362 ± 0.0097
308.15 K, m1 = 0.08417 | 996.55 ± 0.31 | –
308.15 K, m1 = 0.08956 | – | 0.7406 ± 0.0097
308.15 K, m1 = 0.09767 | 996.95 ± 0.31 | –
308.15 K, m1 = 0.1088 | 997.25 ± 0.31 | –
308.15 K, m1 = 0.1136 | 997.47 ± 0.31 | 0.7457 ± 0.0098
308.15 K, m1 = 0.1266 | 997.79 ± 0.31 | –
308.15 K, m1 = 0.1377 | 998.16 ± 0.31 | –
313.15 K, m1 = 0.01287 | 992.54 ± 0.32 | –
313.15 K, m1 = 0.0154 | 992.58 ± 0.32 | 0.6559 ± 0.0088
313.15 K, m1 = 0.0257 | 992.89 ± 0.33 | 0.6585 ± 0.0088
313.15 K, m1 = 0.02702 | 993.01 ± 0.32 | –
313.15 K, m1 = 0.03133 | 993.19 ± 0.32 | 0.66 ± 0.0088
313.15 K, m1 = 0.03789 | 993.29 ± 0.32 | 0.6612 ± 0.0089
313.15 K, m1 = 0.04282 | 993.45 ± 0.32 | –
313.15 K, m1 = 0.0455 | – | 0.6625 ± 0.0089
313.15 K, m1 = 0.05256 | – | 0.6639 ± 0.0089
313.15 K, m1 = 0.05544 | 993.89 ± 0.32 | –
313.15 K, m1 = 0.05776 | – | 0.6643 ± 0.0089
313.15 K, m1 = 0.06453 | – | 0.6663 ± 0.0089
313.15 K, m1 = 0.06825 | 994.21 ± 0.32 | –
313.15 K, m1 = 0.06989 | 994.21 ± 0.32 | 0.6674 ± 0.0089
313.15 K, m1 = 0.08417 | 994.66 ± 0.32 | –
313.15 K, m1 = 0.08956 | – | 0.6708 ± 0.009
313.15 K, m1 = 0.09767 | 995.03 ± 0.31 | –
313.15 K, m1 = 0.1088 | 995.33 ± 0.31 | –
313.15 K, m1 = 0.1136 | 995.47 ± 0.31 | 0.6754 ± 0.009
313.15 K, m1 = 0.1266 | 995.88 ± 0.31 | –
313.15 K, m1 = 0.1377 | 996.19 ± 0.31 | –

O [water] + O=C(O)CCCCC(=O)O
m2 = 0
Conditions | viscosity [mPa·s]
293.15 K | 1.002 ± 0.013
298.15 K | 0.8904 ± 0.011
303.15 K | 0.7975 ± 0.01
308.15 K | 0.7194 ± 0.0095
313.15 K | 0.653 ± 0.0088
